US20170251662A1, “ALTERNATIVE DEVICE AND METHODS FOR APPLICATION OF 1-METHYLCYCLOPROPENE TO FRUIT” (AGROFRESH INC., priority 2016, published 2017)

Legend:
Type in all cases: in vivo
Cantaloupe melons [1] = assay: Comparative liquid 1-MCP spray treatment on melons, stored about 9 days
Experimental: This experiment was conducted to test the effect of 1-MCP spray treatment on Cantaloupe melons as compared to SmartFresh treatment. This experiment was performed exactly as detailed above in Example 1 for Bartlett pears, but with a few noted exceptions described here. The bins of melons were allowed to air dry outside, and were then stored in regular cold air (i.e., about 36° F.) for a second time period of about 9 days. The melons were then moved to a regular atmosphere storage having a temperature of about 70° F. for a third time period of about 2, 4, or 6 more days. Upon removal of the fruit from storage in the bins, the fruit were then analyzed for firmness. Firmness of the melons was measured by cutting the melons in half, and measuring the middle pulp with an 8 mm tip.

Golden Delicious apples = assay: Comparative analysis of 1-MCP treatments of apples applied with the wand device; conditions: for Fruit firmness of apples relative to SmartFresh and control apples: 65 days at about 1° C. + 7 days room temperature
Experimental: This experiment was conducted to test the effect of different application methods of 1-MCP treatment (i.e., Harvista AFx701) on Golden Delicious apples in bins. Apples were treated with two different formulations of the 1-MCP treatment, including a formulation comprising 1) 20 grams of 1-MCP and 2 liters of water, which was applied in 10 seconds and 2) 60 grams of 1-MCP and 6 liters of water, which was applied in 30 seconds. The 1-MCP treatment formulations were prepared and applied to apples using the wand device, and compared to apples that had been treated with SmartFresh or no 1-MCP at all (control).
Apples were stored for 65 days in cold air at about 1° C. temperature, prior to being stressed for 7 days at room temperature. Replicates of 25 fruit were sampled from each layer of each fruit bin to analyze fruit firmness (in pounds, lbs) and internal ethylene concentration (ppm). Data were analyzed on a whole bin basis using all replicates from each layer.

Bartlett pears = assay: Liquid 1-MCP drench treatment on pears; design: key to Firmness, statistical significance between control and treated bins of pears by layers / Ethylene Content, statistical significance between control and treated bins of pears by layers / Skin Color, statistical significance between control and treated bins of pears by layers: Lx: layers that contained fruit that were not statistically significantly different from control; All: fruit tested in all layers was statistically significantly different from control; None: no layers were identified that had statistical significance from control
Experimental: Bins of freshly harvested Bartlett pears were sprayed with 0 gal (control), 1.0 gal, 2.0 gal, or 3.0 gal of Harvista AFxRD038 formulation. The AFxRD038 liquid 1-methylcyclopropene (1-MCP) formulation was made of 3 gal of water, 36 g of AFxRD038, 113 ml of HiSupreme Spray Oil, and 5.63 ml of Silwett L-77 surfactant.
A CO2 backpack sprayer was used to apply the different volumes of 1-MCP treatment within an initial time period of a few days (e.g., about 2-3 days). The formulation was applied to bins containing a total of approximately 900 lbs of pears. Each bin comprised 7-9 layers depending on the size of the pears, with layer 1 being the top layer and layers 7-9 being the bottom layer. A control bin having 9 layers of pears was not sprayed with 1-MCP treatment.
The bins of pears were allowed to air dry outside, and were then stored in regular cold air (i.e., about 4° C.) for a second time period of about two days. The fruit was then moved to a controlled atmosphere storage having a temperature of 31° F. for a third time period of about 45 days. Upon removal of the fruit from storage in the bins, the fruit was then placed in a warm room having a temperature of about 68° F. for a fourth time period of about six days.
On the sixth day of the fourth time period of warm room exposure, each individual bin of fruit was sampled in a uniform fashion. Uniform sampling was performed by removing about 250 pears from the top of each bin, layer-by-layer. Each layer of about 250 fruit was stored in plastic bins for further analysis during a fifth time period. Day 6 evaluation occurred on the same day the layers were removed from the bin. Four days later (Day 10), another series of fruit layers were analyzed. Four more days later (Day 14), the last set of fruit from the bins were analyzed.
On days 6, 10, and 14, a subset of fruit from each layer of each bin was analyzed for firmness, ethylene content, and fruit skin color. Quality measurements were taken on an individual layer of fruit within each treated bin to establish the effectiveness and consistency of the treatments from top to bottom of each fruit bin (see FIGS. 3-5). For example, firmness of the pears was measured by peeling the pears, and measuring the middle pulp with an 8 mm tip.

Red Delicious apples = assay: Liquid 1-MCP drench treatment on apples; design: key to Ethylene Content, statistical significance between control and treated bins of apples by layers: Lx: layers that contained fruit that were not statistically significantly different from control; All: fruit tested in all layers was statistically significantly different from control; None: no layers were identified that had statistical significance from control; conditions: for Firmness of apples compared with unsprayed control apples: most apples
Experimental: This experiment was conducted to test the effect of 1-MCP treatment on Red Delicious apples. This experiment was performed exactly as detailed above in Example 1 for Bartlett pears, but with a few noted exceptions described here. Specifically, Red Delicious apples were treated with a 1-MCP treatment comprising 31 g of AFxRD038. The apples were treated with 0.5 gal, 1.0 gal, and 2.0 gal volumes of the 1-MCP treatment, which were applied to bins of apples comprised in 9-10 layers depending on the size of the apples. A control bin having 10 layers of apples was not sprayed with 1-MCP treatment. The apples were stored for a third time period at room temperature for 33 days. The apples were analyzed for firmness and ethylene content at warm day 7 and 14 of the fifth time period.

Cantaloupe melons [2] = assay: Comparative liquid 1-MCP spray treatment on melons, stored about 15 days
Experimental: This experiment was conducted to test the effect of 1-MCP spray treatment on Cantaloupe melons as compared to SmartFresh treatment. Bins containing 9 kilograms each of freshly harvested Cantaloupe melons were sprayed four times using a dual-liquid sprayer comprising the Harvista AFx701 formulation (see FIG. 10). Each spray of the AFx701 liquid 1-methylcyclopropene (1-MCP) formulation comprised 83.5 mg of AFx701 and 608 mg of water. Thus, a total amount of 1.67 mg of 1-MCP active ingredient and 2.43 g of water was applied to each bin of melons, which equates to 0.185 mg of 1-MCP per kg of melons. The 1-MCP treatment formulations were prepared and applied to […] using a sprayer, and compared to apples that had been treated with SmartFresh or no 1-MCP at all (control).
The bins of melons were allowed to air dry outside, and were then stored in regular cold air (i.e., about 36° F.) for a second time period of about 15 days. The melons were then moved to a regular atmosphere storage having a temperature of about 70° F. for a third time period of about 2, 4, or 6 more days. Upon removal of the fruit from storage in the bins, the fruit were then analyzed for firmness. Firmness of the melons was measured by cutting the melons in half, and measuring the middle pulp with an 8 mm tip.
Day 15 evaluation occurred on the same day the fruit were removed from storage in the bin. Two days later (Day 15+2), another series of fruit were analyzed. Two more days later (Day 15+4), an additional set of fruit were removed and analyzed. Finally, the last set of fruit from the bins was analyzed two days later (Day 15+6). Quality measurements were taken on individual melons randomly selected from different treated bins and different positions within each treated bin (e.g., the edge and/or the center of the bin) to establish the effectiveness and consistency of the treatments (see FIG. 11).

[3] = spray, 9 days cold storage, all days
[4] = Treatment 2: 60 grams of 1-MCP and 6 liters of water, 30 seconds, wand device

CC1=CC1 [1-MCP, 1-Methylcyclopropene]
Firmness of melons compared with SmartFresh-treated melons (Cantaloupe melons [1]; Day 9+4): even higher
Control and/or inhibition of fruit ripening in melons (Cantaloupe melons [1]; spray, 9 days cold storage): effective to control and/or inhibit fruit ripening in melons
Firmness of melons compared with SmartFresh-treated fruit (Cantaloupe melons [1]; [3]): statistically the same as SmartFresh treated fruit
Firmness of melons compared with control (Cantaloupe melons [1]; [3]): significant differences from the control
Control and/or inhibition of fruit ripening in apples (Golden Delicious apples; 1-MCP treatment applied with a wand device): effective to control and/or inhibit fruit ripening in apples
Fruit firmness of apples relative to SmartFresh and control apples (Golden Delicious apples; Treatment 1: 20 grams of 1-MCP and 2 liters of water, 10 seconds, wand device): highest
Internal ethylene concentration of apples compared with Treatment 1 or control (Golden Delicious apples; [4]): significantly less ethylene concentration
Fruit firmness of apples relative to SmartFresh and control apples (Golden Delicious apples; [4]): highest
Firmness of pears compared with unsprayed control fruit (Bartlett pears; 1 gal, 2 gal or 3 gal, layers 1-9, warm days 6, 10 and 14): significantly better firmness
Firmness, statistical significance between control and treated bins of pears by layers (Bartlett pears; WRD 6, 1 Gal): All
Skin Color, statistical significance between control and treated bins of pears by layers (Bartlett pears; WRD 6, 1 Gal): All
Firmness, statistical significance between control and treated bins of pears by layers (Bartlett pears; WRD 6, 2 Gal): All
Skin Color, statistical significance between control and treated bins of pears by layers (Bartlett pears; WRD 6, 2 Gal): All
Firmness, statistical significance between control and treated bins of pears by layers (Bartlett pears; WRD 6, 3 Gal): All
Skin Color, statistical significance between control and treated bins of pears by layers (Bartlett pears; WRD 6, 3 Gal): All
Ethylene Content, statistical significance between control and treated bins of pears by layers (Bartlett pears; WRD 10, 1 Gal): All
Firmness, statistical significance between control and treated bins of pears by layers (Bartlett pears; WRD 10, 1 Gal): All
Skin Color, statistical significance between control and treated bins of pears by layers (Bartlett pears; WRD 10, 1 Gal): All
Firmness, statistical significance between control and treated bins of pears by layers (Bartlett pears; WRD 10, 2 Gal): All
Skin Color, statistical significance between control and treated bins of pears by layers (Bartlett pears; WRD 10, 2 Gal): All
Firmness, statistical significance between control and treated bins of pears by layers (Bartlett pears; WRD 10, 3 Gal): All
Skin Color, statistical significance between control and treated bins of pears by layers (Bartlett pears; WRD 10, 3 Gal): All
Firmness, statistical significance between control and treated bins of pears by layers (Bartlett pears; WRD 14, 1 Gal): All
Skin Color, statistical significance between control and treated bins of pears by layers (Bartlett pears; WRD 14, 1 Gal): None
Firmness, statistical significance between control and treated bins of pears by layers (Bartlett pears; WRD 14, 2 Gal): All
Skin Color, statistical significance between control and treated bins of pears by layers (Bartlett pears; WRD 14, 2 Gal): None
Firmness, statistical significance between control and treated bins of pears by layers (Bartlett pears; WRD 14, 3 Gal): All
Skin Color, statistical significance between control and treated bins of pears by layers (Bartlett pears; WRD 14, 3 Gal): None
Control and/or inhibition of fruit ripening in pears (Bartlett pears; as little as 1 gal of 1-MCP treatment): effective to control and/or inhibit fruit ripening in pears
Fruit color of pears compared with unsprayed control fruit (Bartlett pears; layers 1-9, days 6 and 10): significantly less fruit color
Ethylene concentration of pears compared with unsprayed control fruit (Bartlett pears; layers 1-9, warm days 6, 10 and 14): significantly lower ethylene concentrations
Fruit skin color of pears compared with control (Bartlett pears; warm day 14): none of the layers showed a significant difference
Ethylene Content, statistical significance between control and treated bins of apples by layers (Red Delicious apples; WRD 7, 0.5 Gal): All
Ethylene Content, statistical significance between control and treated bins of apples by layers (Red Delicious apples; WRD 7, 1 Gal): All
Ethylene Content, statistical significance between control and treated bins of apples by layers (Red Delicious apples; WRD 7, 2 Gal): All
Ethylene Content, statistical significance between control and treated bins of apples by layers (Red Delicious apples; WRD 14, 2 Gal): All
Control and/or inhibition of fruit ripening in apples (Red Delicious apples; as little as 0.5 gal of 1-MCP treatment): effective to control and/or inhibit fruit ripening in apples
Firmness of apples compared with unsprayed control apples (Red Delicious apples; day 14, except layers 2, 5, 8 and 10): significantly better firmness
Ethylene concentration of apples compared with unsprayed control apples (Red Delicious apples; warm day 7, layers 1-10): significantly lower ethylene concentrations
Firmness of apples compared with unsprayed control apples (Red Delicious apples; warm day 7, except layers 5, 8 and 9): significantly better firmness
Control and/or inhibition of fruit ripening in melons (Cantaloupe melons [2]; 15 days cold storage): effective to control and/or inhibit fruit ripening in melons
Firmness of melons compared with control fruit (Cantaloupe melons [2]; Day 15, 15+2, 15+4, 15+6 (all days)): significant differences from the control fruit
Firmness of melons compared with SmartFresh-treated melons (Cantaloupe melons [2]; all days): relatively comparable to melons treated with SmartFresh
